Results reported in patent US20260232666A1, “COMPOSITIONS AND METHODS FOR INHIBITION OF RAS” (TheRas, Inc., priority 2023, published 2026).

Key:
[1] = target: T1, GDP-loaded KRAS4b (amino acids 1-169) G12C/C118S protein (Homo sapiens, UniProt P01116, C118S/G12C); assay: Covalent cysteine 12 modification by MALDI-TOF MS, GDP-loaded KRAS G12C; assay type: binding; details: 15 minutes reaction time point
T1 construct: KRAS4b (amino acids 1-169) G12C/C118S protein; made in house
Summary of the method: (§1)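 Covalent labelling is scored at 15 min by MALDI-TOF mass spectrometry, using 1 μM protein with compound at a 1:2.5 protein-to-compound ratio at room temperature.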

[2] = target: T2, GppNHp-loaded KRAS4b (amino acids 1-169) G12C/C118S protein (Homo sapiens, UniProt P01116, C118S/G12C); assay: Covalent cysteine 12 modification by MALDI-TOF MS, GppNHp-loaded KRAS G12C; assay type: binding; details: 15 minutes reaction time point
T2 construct: KRAS4b (amino acids 1-169) G12C/C118S protein; made in house
Summary of the method: as §1

[3] = target: T3, Avi-KRAS G12C (1-169) GppNHp/RAF1 RBD-3×FLAG (52-151) (Homo sapiens, UniProt P01116, G12C); assay: Raf1 RBD-KRAS G12C-GppNHp disruption assay (protein:protein interaction HTRF); assay type: biochemical
T3 construct: Avi-KRAS G12C (1-169) GppNHp; Avi (N)
Method: Biological Example 2: Disrupting KRAS G12C-Effector Binding (Protein: Protein Interaction HTRF Assay)
A protein: protein interaction (PPI) Homogeneous Time Resolved Fluorescence (HTRF) assay was used to determine the effectiveness of compounds of the present disclosure in disrupting KRAS G12C protein and effector (RAF1 Ras Binding Domain (RBD)) binding.
The HTRF assay used the following reagents and proteins: 50 nM Avi-KRAS G12C (1-169) GppNHp/RAF1 RBD-3×FLAG (52-151); 35 nM Avi-PI3K RBD-3×FLAG; Assay Buffer: 50 mM Tris pH 7.5, 100 mM NaCl, 5 mM MgCl2, 0.1% BSA, 0.01% Tween 20, 10% DMSO; Bead Buffer: 50 mM Tris pH 7.5, 0.01% Tween 20; Assay volume: 20 μL (384 well plate-low volume format); and Compound titration: 30-0.02 μM, 3× dilution series.
The HTRF assay employed the following protocol:
Compounds were dispensed in assay plate (384-well, Grenier Bio-One #784075) using Echo (model 555) with dose response settings: 200 nL final volume, titration from 100 μM as a 10-point dilution series. KRAS proteins were prepared in assay buffer, and dispensed on plates, 5 μL per well, then incubated for 1 h at room temperature, with 700 rpm shaking. RAF1 RBD were prepared in assay buffer, dispensed onto plates, 5 μL per well, and then incubated for 1 h at room temperature, with 700 rpm shaking. Reagent mix was then prepared and dispensed on plates, 10 μL per well, and then incubated for 1 h at room temperature, with 700 rpm shaking.
Plates were analyzed on an Envision plate reader using the following setting: Excitation 320 nm, Bandwidth 75 nm; Emission 615 nm, Bandwidth 85 nm; Gain 100%; Flashes 100; Lag 60 μs. Data was reported as percentage of activity, with DMSO as 100%. Data was plotted and analyzed using Prism 8.
The percent of modification of GppNHp, GTP, or GDP loaded KRAS G12C by MALDI-TOF MS, biochemical Raf1 RBD-KRAS G12C-GppNHp disruption assay IC50, and pERK inhibition IC50 of selected compounds described herein are shown in Table 4. For percent of modification at 15 minutes (MALDI-TOF MS) of GppNHp, GTP, or GDP loaded KRAS G12C: A: percent of modification ≥70%; B: 50≤percent of modification <70%; C: 10%≤percent of modification <50%; D: percent of modification <10%. […] For pERK inhibition in H358 cell assay: A: IC50≤0.1 μM; B: 0.1 μM<IC50≤1 μM; C: IC50>1 μM. Blanks in the table represent that compound was not tested in the indicated assay.

SMILES	GDP-KRAS G12C percent of modification [1]	GppNHp-KRAS G12C percent of modification [2]	IC50 [3] [nM]
C=CC(=O)N1C[C@H](C)N(c2nc(OC[C@@]34CCCN3C[C@H](F)C4)nc3c(F)c(-c4ccc(F)c5sc(N)c(C#N)c45)c(Cl)cc23)C[C@H]1C (atropisomer, axis not shown) [Compound 102]	A (percent of modification ≥70%)	A (percent of modification ≥70%)	< 500
C=CC(=O)N1C[C@H](C)N(c2nc(OC[C@@]34CCCN3C[C@H](F)C4)nc3c(F)c(-c4ccc(F)c5sc(N)c(C#N)c45)c(Cl)cc23)C[C@H]1C (atropisomer, axis not shown) [Compound 103]	D (percent of modification <10%)	D (percent of modification <10%)	5000 to 20000
C=CC(=O)N1CC[C@@H](N(C)c2nc(OC[C@@H]3CC4(CC4)CN3C)nc3c(F)c(-c4ccc(F)c5sc(N)c(C#N)c45)c(C(F)(F)F)cc23)[C@@H]1C (atropisomer, axis not shown) [Compound 111]	A (percent of modification ≥70%)	A (percent of modification ≥70%)	< 500
C=CC(=O)N1CC[C@@H](N(CC)c2nc(OC[C@@H]3C[C@@H](F)CN3C)nc3c(F)c(-c4ccc(F)c5sc(N)c(C#N)c45)c(C(F)(F)F)cc23)[C@H]1C (atropisomer, axis not shown) [Compound 113]	A (percent of modification ≥70%)	A (percent of modification ≥70%)	< 500
C=CC(=O)N1CC[C@@H](N(CC)c2nc(OC[C@@H]3C[C@@H](F)CN3C)nc3c(F)c(-c4ccc(F)c5sc(N)c(C#N)c45)c(C(F)(F)F)cc23)[C@H]1C (atropisomer, axis not shown) [Compound 114]	D (percent of modification <10%)	D (percent of modification <10%)	5000 to 20000
C=CC(=O)N1CC[C@@H](N(C)c2nc(OC[C@@H]3CCCN3C)nc3c(F)c(-c4ccc(F)c5sc(N)c(C#N)c45)c(Cl)cc23)[C@H]1C (atropisomer, axis not shown) [Compound 118]	A (percent of modification ≥70%)	A (percent of modification ≥70%)	< 500
C=CC(=O)N1CC[C@@H](N(C)c2nc(OC[C@@H]3CCCN3C)nc3c(F)c(-c4ccc(F)c5sc(N)c(C#N)c45)c(Cl)cc23)[C@H]1C (atropisomer, axis not shown) [Compound 119]	D (percent of modification <10%)	D (percent of modification <10%)	5000 to 20000
C=CC(=O)N1CC[C@@H](N(CC)c2nc(OC[C@@H]3CC4(CC4)CN3C)nc3c(F)c(-c4ccc(F)c5sc(N)c(C#N)c45)c(Cl)cc23)[C@H]1C (atropisomer, axis not shown) [Compound 120]	A (percent of modification ≥70%)	A (percent of modification ≥70%)	< 500
C=CC(=O)N1CC[C@@H](N(CC)c2nc(OC[C@@H]3CC4(CC4)CN3C)nc3c(F)c(-c4ccc(F)c5sc(N)c(C#N)c45)c(Cl)cc23)[C@H]1C (atropisomer, axis not shown) [Compound 121]	D (percent of modification <10%)	D (percent of modification <10%)	5000 to 20000
C=CC(=O)N1CC[C@@H](N(C)c2nc(OC[C@@H]3CCCN3C)nc3c(F)c(-c4ccc(F)c5sc(N)c(C#N)c45)c(C(F)(F)F)cc23)[C@H]1C (atropisomer, axis not shown) [Compound 131]	A (percent of modification ≥70%)	A (percent of modification ≥70%)	< 500
C=CC(=O)N1CC[C@@H](N(C)c2nc(OC[C@@H]3CCCN3C)nc3c(F)c(-c4ccc(F)c5sc(N)c(C#N)c45)c(C(F)(F)F)cc23)[C@H]1C (atropisomer, axis not shown) [Compound 132]	D (percent of modification <10%)	D (percent of modification <10%)	5000 to 20000
C=CC(=O)N1CC[C@H](N(CC)c2nc(OC[C@@]34CCCN3C[C@H](F)C4)nc3c(F)c(-c4ccc(F)c5sc(N)c(C#N)c45)c(C(F)(F)F)cc23)C1 (atropisomer, axis not shown) [Compound 171]	C (10%≤percent of modification <50%)	C (10%≤percent of modification <50%)	< 500
C=CC(=O)N1C[C@H](N(C)c2nc(OC[C@@]34CCCN3C[C@H](F)C4)nc3c(F)c(-c4ccc(F)c5sc(N)c(C#N)c45)c(C(F)(F)F)cc23)C[C@H]1C (atropisomer, axis not shown) [Compound 176]	A (percent of modification ≥70%)	A (percent of modification ≥70%)	< 500
C=CC(=O)N1C[C@H](N(C)c2nc(OC[C@@]34CCCN3C[C@H](F)C4)nc3c(F)c(-c4ccc(F)c5sc(N)c(C#N)c45)c(C(F)(F)F)cc23)C[C@H]1C (atropisomer, axis not shown) [Compound 177]	D (percent of modification <10%)	D (percent of modification <10%)	500 to 5000
C=CC(=O)N1CC[C@@H](N(CC)c2nc(OC[C@@H]3C[C@@H](OC)CN3C)nc3c(F)c(-c4ccc(F)c5sc(N)c(C#N)c45)c(C(F)(F)F)cc23)[C@H]1C (single isomer, unassigned) [Compound 116]	A (percent of modification ≥70%)	A (percent of modification ≥70%)	< 500
C=CC(=O)N1CC[C@@H](N(C)c2nc(OC[C@@H]3CCCN3CC)nc3c(F)c(-c4ccc(F)c5sc(N)c(C#N)c45)c(C(F)(F)F)cc23)[C@@H]1C [Compound 30]		A (percent of modification ≥70%)	< 500
C=CC(=O)N1CC[C@@H](N(C)c2nc(OC[C@@H]3C[C@@H](F)CN3C)nc3c(F)c(-c4ccc(F)c5sc(N)c(C#N)c45)c(C(F)(F)F)cc23)[C@@H]1C [Compound 32]		A (percent of modification ≥70%)	< 500
C=CC(=O)N1CC[C@@H](N(C)c2nc(OC[C@@]34CCCN3C[C@H](OC)C4)nc3c(F)c(-c4ccc(F)c5sc(N)c(C#N)c45)c(C(F)(F)F)cc23)[C@H]1C [Compound 151]		A (percent of modification ≥70%)	< 500
